{"source": "patent US20170333390A1", "about": "“PHYTOCHEMICAL COMPOSITIONS INCLUDING SESAMIN FOR ANTI-INFLAMMATORY, ANTI-CYTOKINE STORM, AND OTHER USES” (CHIANG MAI UNIVERSITY, priority 2009, published 2017)", "test_system": "IL-1 gene expression in LPS induced synovial fibroblast (SF) cells", "assay": "IL-1 gene expression relative to GAPDH in LPS induced synovial fibroblast cells (RT-PCR)", "format": "cell-based", "details": "24 hours", "method": "Experiments were conducted to evaluate the effect of particular phytochemical compositions provided by the present disclosure on IL-1 gene expression in specified cells found within a body of a living organism. The cells used for the experiments described in example one are lipopolysaccharide (LPS) induced synovial fibroblast (SF) cells. The SF cells were isolated from synovium tissue (also referred to as synovial tissue) using standard cell isolation techniques or methods known to a person of ordinary skill in the art. In addition, LPS is obtained from a commercial source, for example Sigma-Aldrich Co. It is understood by a person having ordinary skill in the art that the SF cells may be substituted with other immune cells found within the body, for example peripheral blood mononuclear cells, lymphocytes, monocytes, and macrophages, which can be isolated using techniques or methods known to a person of ordinary skill in the art. […]\nThe amount or level of IL-1 gene expression in the SF cells was measured or determined using methods or techniques known to a person having ordinary skill in the relevant art. In example 1, Real-Time PCR (RT-PCR) was used for quantifying the amount of IL-1 gene expression in the SF cells. IL-1beta or IL-1β specific primers were used during RT-PCR, thereby facilitating the quantification of IL-1β gene expression in the SF cells. […]"}
{"smiles": "c1cc2c(cc1[C@H]1OC[C@H]3[C@@H]1CO[C@@H]3c1ccc3c(c1)OCO3)OCO2", "note": "[sesamin]", "values": [{"measurement": "decrease in IL-1 gene expression relative to GAPDH", "setting": "0.025 mM sesamin (culture 4), compared to control culture 3 (LPS 0.2 μg/ml + DMSO)", "result": "approximately 20%"}, {"measurement": "decrease in IL-1 gene expression relative to GAPDH", "setting": "1.0 mM sesamin (culture 9), compared to control culture 2 (LPS 0.2 μg/ml)", "result": "approximately 65%"}]}
